Data taken from patent US20070179161A1, “Pyrazolopyrimidine compounds and their use in medicine” (VERNALIS (CAMBRIDGE) LIMITED., priority 2003, published 2007).
pIC50: −log10 of the molar value.

Columns and labels:
Assay type in all cases: biochemical
[1] = target: CDK-2 enzyme, complexed with cyclin A (Homo sapiens, UniProt P24941); assay: CDK2 enzyme inhibition assay (33P phosphorylation of peptide […], filter plate); conditions: CDK-2/cyclin A, 0.1 mM ATP, 40 min at 30° C.
How it was run: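 Cyclin A–complexed CDK2 (0.4 U/ml) incubated with inhibitor, 0.03 mM peptide, 0.1 mM ATP plus 33P-γ-ATP in HEPES pH 7.5, 7.5 mM Mg acetate, 0.1 mg/ml BSA, 40 min at 30 °C. Stopped with phosphoric acid; phosphorylated peptide captured on filter plates and counted by scintillation.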

[2] = target: T1, PDK1 enzyme (Homo sapiens, UniProt O15530); assay: PDK1 kinase inhibition assay (33P phosphorylation of synthetic peptide, filter plate); conditions: 0.01 mM ATP, 60 min at 30° C.; read-out: PDK1 IC50
T1 sequence (O15530 1-556): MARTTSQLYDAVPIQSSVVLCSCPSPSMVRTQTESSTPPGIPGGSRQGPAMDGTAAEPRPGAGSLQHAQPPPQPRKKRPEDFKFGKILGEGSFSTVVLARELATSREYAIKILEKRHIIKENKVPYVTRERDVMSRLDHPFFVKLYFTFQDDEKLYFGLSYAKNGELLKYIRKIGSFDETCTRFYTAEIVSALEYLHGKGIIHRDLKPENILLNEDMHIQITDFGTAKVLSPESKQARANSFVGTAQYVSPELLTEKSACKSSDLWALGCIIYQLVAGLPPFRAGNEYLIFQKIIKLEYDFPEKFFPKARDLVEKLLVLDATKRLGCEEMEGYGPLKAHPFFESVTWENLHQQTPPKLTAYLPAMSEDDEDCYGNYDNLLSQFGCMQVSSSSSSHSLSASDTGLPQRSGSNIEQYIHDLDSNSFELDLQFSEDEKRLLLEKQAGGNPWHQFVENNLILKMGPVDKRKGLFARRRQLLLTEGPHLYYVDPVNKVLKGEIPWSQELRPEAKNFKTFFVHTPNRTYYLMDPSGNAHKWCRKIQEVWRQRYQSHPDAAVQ
How it was run: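 PDK1 and inhibitor incubated 60 min at 30° C with 0.01 mM ATP plus 33P-γ-ATP, 0.075 mM peptide, 7.5 mM Mg acetate, 0.1 mg/ml BSA in 0.05 M Tris.HCl pH 7.5. Stopped with phosphoric acid; phosphorylated peptide captured on filter plate and counted by scintillation.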

[3] = target: T2, GST-Chk1 enzyme (Homo sapiens, UniProt O14757); assay: Chk1 kinase inhibition assay (33P phosphorylation of Chktide, filter plate); conditions: 0.01 mM ATP, 11 nM GST-Chk1, 40 minutes at 30° C.; read-out: Chk1 IC50
T2 sequence (O14757 1-476): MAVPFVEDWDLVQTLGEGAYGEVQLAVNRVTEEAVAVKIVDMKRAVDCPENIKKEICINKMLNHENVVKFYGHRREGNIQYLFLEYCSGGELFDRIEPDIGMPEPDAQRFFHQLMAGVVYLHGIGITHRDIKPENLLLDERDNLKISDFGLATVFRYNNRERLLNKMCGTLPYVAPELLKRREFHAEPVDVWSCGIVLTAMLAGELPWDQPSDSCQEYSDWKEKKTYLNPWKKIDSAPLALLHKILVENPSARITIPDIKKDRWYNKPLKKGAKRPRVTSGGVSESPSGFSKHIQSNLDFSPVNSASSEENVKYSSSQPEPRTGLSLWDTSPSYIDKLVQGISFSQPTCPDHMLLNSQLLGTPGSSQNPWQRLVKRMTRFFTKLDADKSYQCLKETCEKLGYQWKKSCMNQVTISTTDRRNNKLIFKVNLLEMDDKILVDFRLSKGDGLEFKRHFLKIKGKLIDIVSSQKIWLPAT
How it was run: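 Inhibitor and enzyme reacted 40 min at 30 °C, then stopped with 50 mM phosphoric acid. Phosphorylated peptide captured on filter plates and quantified by scintillation counting.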

| SMILES | pIC50 [1] | pIC50 [2] | pIC50 [3] |
| --- | --- | --- | --- |
| CCc1cnn2c(Nc3ccc(S(=O)(=O)N(C)C)cc3)cc(N[C@H]3CC[C@H](N)CC3)nc12 [Example 57] | 7.16 | 5.61 | 5.58 |
| CCN(CC)c1cc(Nc2ccc(S(=O)(=O)N(C)C)cc2)n2ncc(C(C)C)c2n1 [Example 71] | 6.18 | < 3.70 | < 3.70 |
| Cc1cccc(-c2cc(Nc3ccc(S(=O)(=O)N4CCOCC4)cc3)n3nccc3n2)c1 [Example 13] | 5.75 | < 3.70 | < 3.70 |
| CC(C)c1cnn2c(Nc3ccc(S(=O)(=O)N(C)C)cc3)cc(N3CCCC(CO)C3)nc12 (stereo not drawn) [Example 49] | 6.41 | < 3.70 | < 3.70 |
| CC(C)c1cnn2c(Nc3ccc(S(=O)(=O)N(C)C)cc3)cc(NCC3CCNCC3)nc12 [Example 80] | 6.17 | 5.59 | < 3.70 |
| CC(C)c1cnn2c(Nc3ccc(S(=O)(=O)N(C)C)cc3)cc(C(=O)NCCN(C)C)nc12 [Example 122] | 5.50 | < 3.70 | < 3.70 |
| O=S(=O)(Nc1ccccn1)c1ccc(Nc2cc(Cl)nc3ccnn23)cc1 [Example 10] | 5.79 | < 3.70 | < 3.70 |
| Oc1ccc(-c2cc(Nc3ccccc3)n3nccc3n2)cc1 [Example 4] | 5.42 | < 3.70 | < 3.70 |
| CC(C)c1cnn2c(Nc3ccc(S(=O)(=O)N(C)C)cc3)cc(N3CCCC(CN(C)C)C3)nc12 (stereo not drawn) [Example 89] | 5.08 | < 3.70 | < 3.70 |
| CC(C)c1cnn2c(Nc3ccc(S(=O)(=O)N(C)C)cc3)cc(N(C)c3ccncc3)nc12 [Example 119] | 4.64 | < 3.70 | < 3.70 |
| O=S(=O)(Nc1nccs1)c1ccc(Nc2cc(Cl)nc3ccnn23)cc1 [Example 11] | 5.88 | < 3.70 | < 3.70 |
| CN(C)S(=O)(=O)c1ccc(Nc2cc(N[C@H]3CC[C@@H](N)CC3)nc3c(Br)cnn23)cc1 [Example 140] | 5.44 | 5.28 | 6.30 |
| CNS(=O)(=O)c1ccc(Nc2cc(N[C@H]3CC[C@H](N)CC3)nc3c(C(C)C)cnn23)cc1 [Example 67] | 7.52 | 5.33 | < 3.70 |
| CC(C)c1cnn2c(Nc3ccc(S(=O)(=O)N(C)C)cc3)cc(NCCCN3CCN(C)CC3)nc12 [Example 124] | 4.66 | < 3.70 | < 3.70 |
| CC(C)c1cnn2c(Nc3ccc(S(=O)(=O)N(C)C)cc3)cc(OC3CCCN(C)C3)nc12 (stereo not drawn) [Example 75] | 6.58 | < 3.70 | 5.20 |
| CN(C)S(=O)(=O)c1ccc(Nc2cc(N[C@@H]3CCCC[C@@H]3N)nc3c(Br)cnn23)cc1 [Example 138] | 6.25 | < 4.30 | 6.01 |
| N[C@H]1CC[C@@H](Nc2cc(Nc3ccc(S(=O)(=O)N4CCCC4)cc3)n3ncc(Br)c3n2)CC1 [Example 178] | 6.82 | 5.59 | 7.15 |
| CC(C)c1cnn2c(Nc3ccc(S(=O)(=O)N(C)C)cc3)cc(OC3CCCC3)nc12 [Example 54] | 5.88 | < 3.70 | < 3.70 |
| CCc1cnn2c(Nc3ccc(S(C)(=O)=O)cc3)cc(Cl)nc12 [Example 43] | 6.97 | < 3.70 | < 3.70 |

Further compounds by rising pIC50 [1], results first:

| pIC50 [1] | pIC50 [2] | pIC50 [3] | SMILES |
| --- | --- | --- | --- |
| 4.77 | 5.67 | 4.77 | CC1(C)CC(Nc2cc(Nc3ccc(S(=O)(=O)Nc4nccs4)cc3)n3ncc(Br)c3n2)CC(C)(C)N1 [Example 166] |
| 5.25 | < 3.70 | < 3.70 | Oc1cccc(-c2cc(Nc3ccccc3)n3nccc3n2)c1 [Example 6] |
| 5.32 | < 3.70 | < 3.70 | CC(C)c1cnn2c(Nc3ccc(S(=O)(=O)N(C)C)cc3)cc(N3CCC(C(=O)O)CC3)nc12 [Example 78] |
| 5.47 | < 3.70 | < 3.70 | O=S(=O)(c1ccc(Nc2ccnc3ccnn23)cc1)N1CCOCC1 [Example 16] |
| 5.66 | 4.82 | 5.40 | CCc1cnn2c(Nc3ccc(S(C)(=O)=O)cc3)cc(N[C@H]3CC[C@@H](N)CC3)nc12 [Example 173] |
| 5.69 | 5.51 | 5.66 | CC(C)c1cnn2c(Nc3ccc(S(=O)(=O)N(C)C)cc3)cc(NC3CCCC(N)C3)nc12 (stereo not drawn) [Example 113] |
| 5.71 | < 3.70 | 4.29 | CC(C)c1cnn2c(Nc3ccc(S(C)(=O)=O)cc3)cc(N(C)CCN(C)C)nc12 [Example 58] |
| 5.96 | < 3.70 | < 3.70 | CC(C)c1cnn2c(Nc3ccc(S(=O)(=O)N(C)C)cc3)cc(OCC3CCCN3C)nc12 (stereo not drawn) [Example 65] |
| 6.06 | < 3.70 | 5.27 | CC(C)c1cnn2c(Nc3ccc(S(=O)(=O)NCCN(C)C)cc3)cc(OC3CCCCC3)nc12 [Example 91] |
| 6.06 | < 3.70 | < 3.70 | COc1cc(Nc2ccc(S(=O)(=O)N(C)C)cc2)n2ncc(C(C)C)c2n1 [Example 66] |
| 6.08 | < 3.70 | 4.79 | CC(C)c1cnn2c(Nc3ccc(S(=O)(=O)N(C)C)cc3)cc(N(C)C3CCN(C)CC3)nc12 [Example 87] |
| 6.24 | < 3.70 | < 3.70 | CN(C)S(=O)(=O)c1cccc(Nc2cc(Cl)nc3c(Br)cnn23)c1 [Example 93] |
| 6.32 | 4.89 | 5.70 | CC(C)c1cnn2c(Nc3ccc(S(=O)(=O)N(C)C)cc3)cc(NC3CCC(N)C3)nc12 (stereo not drawn) [Example 150] |
| 6.40 | < 3.70 | < 3.70 | CC(C)Oc1cc(Nc2ccc(S(=O)(=O)N(C)C)cc2)n2ncc(C(C)C)c2n1 [Example 64] |
| 6.50 | < 3.70 | < 3.70 | CC(C)c1cnn2c(Nc3ccc(S(C)(=O)=O)cc3)ccnc12 [Example 38] |
| 6.56 | < 3.70 | < 3.70 | CCOC(=O)c1cc(Nc2ccc(S(=O)(=O)N(C)C)cc2)n2ncc(C(C)C)c2n1 [Example 112] |
| 7.14 | 4.46 | < 3.70 | CC(C)c1cnn2c(Nc3ccc(S(=O)(=O)N(C)C)cc3)cc(N[C@H]3CC[C@H](NS(C)(=O)=O)CC3)nc12 [Example 126] |
| 7.49 | 4.96 | 5.18 | CNS(=O)(=O)c1ccc(Nc2cc(N[C@H]3CC[C@H](N)CC3)nc3c(C(C)C)cnn23)cc1 [Example 61] |
| 7.62 | 5.42 | < 3.70 | CC(C)c1cnn2c(Nc3ccc(S(=O)(=O)N(C)C)cc3)cc(N[C@H]3CC[C@H](O)CC3)nc12 [Example 101] |
| 7.62 | 5.92 | 5.49 | CC(C)c1cnn2c(Nc3ccc(S(=O)(=O)N4CCCC4)cc3)cc(N[C@H]3CC[C@H](N)CC3)nc12 [Example 62] |
| 8.15 | 5.87 | 6.48 | CN(C)S(=O)(=O)c1ccc(Nc2cc(N[C@H]3CC[C@H](N)CC3)nc3c(C#N)cnn23)cc1 [Example 199] |
| 8.40 | 3.77 | 6.14 | CN(C)S(=O)(=O)c1ccc(Nc2cc(N[C@H]3CC[C@H](N)CC3)nc3c(C4CCCC4)cnn23)cc1 [Example 167] |
